Results on 26 molecules are retold here after patent US9326986B2, “Quinazolinone, quinolone and related analogs as sirtuin modulators” (GLAXOSMITHKLINE LLC, priority 2008, dated 2016).

In the experiment the target is T1, SIRT1 (Homo sapiens, UniProt Q96EB6).
T1 sequence (Q96EB6 1-747): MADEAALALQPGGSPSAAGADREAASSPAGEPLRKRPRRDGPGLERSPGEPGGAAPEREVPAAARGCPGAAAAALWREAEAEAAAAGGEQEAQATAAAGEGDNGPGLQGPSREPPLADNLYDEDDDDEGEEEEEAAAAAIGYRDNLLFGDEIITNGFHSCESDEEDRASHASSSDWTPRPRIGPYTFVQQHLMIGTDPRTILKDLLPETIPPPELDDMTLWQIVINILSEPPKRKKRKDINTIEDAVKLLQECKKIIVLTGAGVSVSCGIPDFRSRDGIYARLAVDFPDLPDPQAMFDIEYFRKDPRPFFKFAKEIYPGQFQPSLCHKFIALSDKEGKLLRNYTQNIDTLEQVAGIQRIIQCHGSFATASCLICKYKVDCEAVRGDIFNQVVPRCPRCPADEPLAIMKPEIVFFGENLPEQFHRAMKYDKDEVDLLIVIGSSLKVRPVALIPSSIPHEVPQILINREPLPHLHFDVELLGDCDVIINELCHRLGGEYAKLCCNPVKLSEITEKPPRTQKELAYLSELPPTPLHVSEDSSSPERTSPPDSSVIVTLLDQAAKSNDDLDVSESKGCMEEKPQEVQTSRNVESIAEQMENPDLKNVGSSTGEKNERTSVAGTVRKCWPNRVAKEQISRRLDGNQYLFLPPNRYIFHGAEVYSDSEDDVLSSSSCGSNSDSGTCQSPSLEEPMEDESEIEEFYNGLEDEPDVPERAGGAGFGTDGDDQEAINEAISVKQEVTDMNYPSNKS
Kind of experiment: Mass spectrometry based assay to identify modulators of SIRT1 activity (deacetylation of p53-based acetylated peptide). It is filed as biochemical. To be noted: 10 nM SIRT1, 0.5 μM peptide substrate, 120 μM βNAD+, 25 minutes at 25° C.; for EC1.5 μM: SIRT1 activation. The source says: A mass spectrometry based assay was used to identify modulators of SIRT1 activity. The mass spectrometry based assay utilizes a peptide having 20 amino acid residues as follows: Ac-EE-K(biotin)-GQSTSSHSK(Ac)NleSTEG-K(5TMR)-EE-NH2 (SEQ ID NO: 1) wherein K(Ac) is an acetylated lysine residue and Nle is a norleucine. The peptide is labeled with the fluorophore 5TMR (excitation 540 nm/emission 580 nm) at the C-terminus. The sequence of the peptide substrate is based on p53 with several modifications. In addition, the methionine residue naturally present in the sequence was replaced with the norleucine because the methionine may be susceptible to oxidation during synthesis and purification.
The mass spectrometry assay is conducted as follows: 0.5 μM peptide substrate and 120 μM βNAD^+ is incubated with 10 nM SIRT1 for 25 minutes at 25° C. in a reaction buffer (50 mM Tris-acetate pH 8, 137 mM NaCl, 2.7 mM KCl, 1 mM MgCl2, 5 mM DTT, 0.05% BSA). Test compounds may be added to the reaction as described above. […] After the 25 minute incubation with SIRT1, 10 μL of 10% formic acid is added to stop the reaction. Reactions are sealed and frozen for later mass spec analysis. Determination of the mass of the substrate peptide allows for precise determination of the degree of acetylation (i.e. starting material) as compared to deacetylated peptide (product).
A control for inhibition of sirtuin activity is conducted by adding 1 μL of 500 mM nicotinamide as a negative control at the start of the reaction (e.g., permits determination of maximum sirtuin inhibition). A control for activation of sirtuin activity is conducted using 10 nM of sirtuin protein, with 1 μL of DMSO in place of compound, to determine the amount of deacetylation of the substrate at a given timepoint within the linear range of the assay. This timepoint is the same as that used for test compounds and, within the linear range, the endpoint represents a change in velocity.
For the above assay, SIRT1 protein was expressed and purified as follows. […] The protein was expressed by induction with 1 mM IPTG as an N-terminal His-tag fusion protein at 18° C. overnight and harvested at 30,000×g. Cells were lysed with lysozyme in lysis buffer (50 mM Tris-HCl, 2 mM Tris[2-carboxyethyl]phosphine (TCEP), 10 μM ZnCl2, 200 mM NaCl) and further treated with sonication for 10 min for complete lysis. The protein was purified over a Ni-NTA column (Amersham) and fractions containing pure protein were pooled, concentrated and run over a sizing column (Sephadex S200 26/60 global). The peak containing soluble protein was collected and run on an Ion-exchange column (MonoQ). Gradient elution (200 mM-500 mM NaCl) yielded pure protein. This protein was concentrated and dialyzed against dialysis buffer (20 mM Tris-HCl, 2 mM TCEP) overnight. The protein was aliquoted and frozen at −80° C. until further use.
Sirtuin modulating compounds that activated SIRT1 were identified using the assay described above and are shown below in Tables 1 and 2. The EC1.5 values for the activating compounds are represented by A (EC1.5<1.0 μM), B (EC1.5 1-25 μM), C (EC1.5>25 μM). The percent maximum fold activation is represented by A (Fold activation>200%) or B (Fold Activation<200%).

For the molecule `Cn1c(-c2cncnc2)nc2c(C(=O)Nc3ccccn3)cccc2c1=O` [Compound 260], the “% Fold Act. (percent maximum fold activation)” value was “B (Fold Activation<200%)” and the “EC1.5 μM” value is “C (EC1.5>25 μM)”.
As for `O=C(Nc1cccc2c(=O)[nH]c(-c3ccccc3C(F)F)nc12)c1cnccn1` [Compound 329], the “% Fold Act. (percent maximum fold activation)” value was “A (Fold activation>200%)” and the “EC1.5 μM” value was “A (EC1.5<1.0 μM)”.
In the case of `COc1ccc(NC(=O)c2cccc3c(=O)n(C)c(-c4cccc(C(F)(F)F)c4)nc23)cc1OC` [Compound 220, N-(3,4-dimethoxyphenyl)-3-methyl-4-oxo-2-(3-(trifluoromethyl)phenyl)-3,4-dihydroquinazoline-8-carboxamide], the “% Fold Act. (percent maximum fold activation)” value is given as “A (Fold activation>200%)” and the “EC1.5 μM” value was “A (EC1.5<1.0 μM)”.
On to `Cn1nccc1-c1nc2c(C(=O)Nc3ccccn3)cccc2c(=O)n1C` [Compound 264], for which the “% Fold Act. (percent maximum fold activation)” value was “B (Fold Activation<200%)” and the “EC1.5 μM” value was “C (EC1.5>25 μM)”.
As to `O=C(Nc1ccccn1)c1cccc2c(=O)n(CCN3CCCC3)c(-c3cccc(C(F)(F)F)c3)nc12` [Compound 272], the “% Fold Act. (percent maximum fold activation)” value is given as “B (Fold Activation<200%)” and the “EC1.5 μM” value is listed as “B (EC1.5 1-25 μM)”.
For `Cc1ncsc1-c1nc2c(NC(=O)c3cnccn3)cccc2c(=O)n1C` [Compound 284] the same measures were “A (Fold activation>200%)” and “B (EC1.5 1-25 μM)”.
As to `O=C(Nc1cccc2c(=O)cc(-c3cccc(Cl)c3)[nH]c12)c1cnccn1` [Compound 447], the “% Fold Act. (percent maximum fold activation)” value is listed as “A (Fold activation>200%)” and the “EC1.5 μM” value is given as “A (EC1.5<1.0 μM)”.
Turning to `Cn1c(-c2cccc(C(F)(F)F)c2)nc2c(NC(=O)c3cncnc3)cccc2c1=O` [Compound 241], the “% Fold Act. (percent maximum fold activation)” value is “B (Fold Activation<200%)” and the “EC1.5 μM” value is listed as “C (EC1.5>25 μM)”.
For `Cn1c(-c2ccc(CN3CCCC3)cc2)nc2c(C(=O)Nc3ccccn3)cccc2c1=O` [Compound 275, 3-methyl-4-oxo-N-(pyridin-2-yl)-2-(4-(pyrrolidin-1-ylmethyl)phenyl)-3,4-dihydroquinazoline-8-carboxamide] the same measures were “B (Fold Activation<200%)” and “C (EC1.5>25 μM)”.
On to `Cn1c(-c2cccc(C(F)(F)F)c2)nc2c(NC(=O)c3cccc(CN4CCCC4)c3)cccc2c1=O` [Compound 364], for which the “% Fold Act. (percent maximum fold activation)” value was “A (Fold activation>200%)” and the “EC1.5 μM” value was “B (EC1.5 1-25 μM)”.
As to `Cn1cnc(-c2nc3c(NC(=O)c4cnccn4)cccc3c(=O)n2C)c1` [Compound 288], the “% Fold Act. (percent maximum fold activation)” value is “B (Fold Activation<200%)” and the “EC1.5 μM” value is “C (EC1.5>25 μM)”.
Take `Cn1ccc(C(=O)Nc2cccc3c(=O)n(C)c(-c4cccc(C(F)(F)F)c4)nc23)n1` [Compound 247]: the “% Fold Act. (percent maximum fold activation)” value is “B (Fold Activation<200%)” and the “EC1.5 μM” value is given as “B (EC1.5 1-25 μM)”.
Consider `Cn1c(-c2cccc(C(F)(F)F)c2)nc2c(NC(=O)c3cnccn3)cccc2c1=O` [Compound 202], for which the “% Fold Act. (percent maximum fold activation)” value is “A (Fold activation>200%)” and the “EC1.5 μM” value is given as “A (EC1.5<1.0 μM)”.
As for `Cn1c(-c2cccc(C(F)(F)F)c2)nc2c(C(=O)Nc3cccc(N4CCCC4)n3)cccc2c1=O` [Compound 350, 3-methyl-4-oxo-N-(6-(pyrrolidin-1-yl)pyridin-2-yl)-2-(3-(trifluoromethyl)phenyl)-3,4-dihydroquinazoline-8-carboxamide], the “% Fold Act. (percent maximum fold activation)” value is recorded as “B (Fold Activation<200%)” and the “EC1.5 μM” value is listed as “B (EC1.5 1-25 μM)”.
For `Cn1c(-c2cccc(C(F)(F)F)c2)nc2c(C(=O)Nc3cncc(CN4CCOCC4)c3)cccc2c1=O` [Compound 300], the “% Fold Act. (percent maximum fold activation)” value was “A (Fold activation>200%)” and the “EC1.5 μM” value is “B (EC1.5 1-25 μM)”.
Consider `Cn1c(-c2cccc(Cl)c2)nc2c(C(=O)Nc3cccnc3)cccc2c1=O` [Compound 243], for which the “% Fold Act. (percent maximum fold activation)” value was “B (Fold Activation<200%)” and the “EC1.5 μM” value is listed as “B (EC1.5 1-25 μM)”.
`Cn1c(-c2cccc(C(F)(F)F)c2)nc2c(C(=O)Nc3ccnc(CN4CCNCC4)n3)cccc2c1=O` [Compound 347]: the “% Fold Act. (percent maximum fold activation)” value was “A (Fold activation>200%)” and the “EC1.5 μM” value is on record as “A (EC1.5<1.0 μM)”.
As to `Cn1c(-c2cccc(C(F)(F)F)c2)nc2c(C(=O)Nc3cccc(OCC(O)CO)c3)cccc2c1=O` (stereo not shown) [Compound 360], the “% Fold Act. (percent maximum fold activation)” value is recorded as “A (Fold activation>200%)” and the “EC1.5 μM” value is recorded as “A (EC1.5<1.0 μM)”.
Consider `Cn1c(-c2cccnc2)nc2c(NC(=O)c3cnccn3)cccc2c1=O` [Compound 278], for which the “% Fold Act. (percent maximum fold activation)” value is recorded as “B (Fold Activation<200%)” and the “EC1.5 μM” value is given as “B (EC1.5 1-25 μM)”.
`Cn1ccnc1C(=O)Nc1cccc2c(=O)n(C)c(-c3cccc(C(F)(F)F)c3)nc12` [Compound 238]: the “% Fold Act. (percent maximum fold activation)” value is recorded as “A (Fold activation>200%)” and the “EC1.5 μM” value is on record as “B (EC1.5 1-25 μM)”.
With `Cn1c(-c2ccncn2)nc2c(C(=O)Nc3ccccn3)cccc2c1=O` [Compound 257], the “% Fold Act. (percent maximum fold activation)” value is “B (Fold Activation<200%)” and the “EC1.5 μM” value is “C (EC1.5>25 μM)”.
For the molecule `Cn1c(-c2cccc(C(F)(F)F)c2)nc2c(NC(=O)c3cocn3)cccc2c1=O` [Compound 250], the “% Fold Act. (percent maximum fold activation)” value is “B (Fold Activation<200%)” and the “EC1.5 μM” value was “C (EC1.5>25 μM)”.
As to `Cn1c(-c2ccccc2Cl)nc2c(C(=O)Nc3ccccn3)cccc2c1=O` [Compound 242], the “% Fold Act. (percent maximum fold activation)” value is “B (Fold Activation<200%)” and the “EC1.5 μM” value is “B (EC1.5 1-25 μM)”.
With `Cn1c(-c2cccc(C(F)(F)F)c2)nc2c(C(=O)Nc3cccc(OC[C@H](O)CO)c3)cccc2c1=O` [Compound 363], the “% Fold Act. (percent maximum fold activation)” value is reported as “A (Fold activation>200%)” and the “EC1.5 μM” value is on record as “A (EC1.5<1.0 μM)”.
`Cn1c(-c2cccc(C(F)(F)F)c2)nc2c(C(=O)Nc3cccc(CN4CC[C@@H](F)C4)n3)cccc2c1=O` [Compound 345]: the “% Fold Act. (percent maximum fold activation)” value is on record as “A (Fold activation>200%)” and the “EC1.5 μM” value was “A (EC1.5<1.0 μM)”.
For `O=C(Nc1ccccn1)c1cccc2c(=O)cc(-c3cccc(C(F)(F)F)c3)[nH]c12` [Compound 401, 4-oxo-N-(pyridin-2-yl)-2-(3-(trifluoromethyl)phenyl)-1,4-dihydroquinoline-8-carboxamide], in that order: “A (Fold activation>200%)” and “A (EC1.5<1.0 μM)”.
